Reference: patent US12329741B2, “HBV inhibitor and its use” (priority 2019, dated 2025)

Tests used:
hepatitis B virus (HBV) = test: Anti-hepatitis B virus activity: HBV DNA in supernatant of HepG2.2.15 cells by qPCR; type: cell-based; details: 192 h, supernatant collected on day 8
Source text: (§1) In this experiment, real-time fluorescent quantitative PCR (qPCR) method was used to detect the content of HBV DNA in the supernatant of HepG2.2.15 cells to determine the anti-hepatitis B virus activity of the compound in HepG2.2.15 cells, and to detect cell viability impact of the test compound against HepG2.2.15 by Cell-titer Blue method. In the experiment, entecavir (ETV) was used as a reference compound to monitor the quality of the experiment.
On day 1, the cells were planted into a 96-well plate, the compound was added to treat the cells on day 2, a new culture medium containing the compound was replaced on day 5, and the supernatant was collected on day 8 to extract DNA. Quantitative PCR was used to detect the content of HBV DNA. Both the test compound and the control compound were diluted in a series of 3 times with 8 concentration points, and 2 replicate wells were measured in parallel. The final concentration of DMSO in the culture medium is 0.5%.
The calculation formula of the inhibition percentage is as follows: % inh.=(1-HBV copy number of sample/HBV copy number of 0.5% DMSO control)×100
EC50 was analyzed by Graphpad Prism software (four parameter logistic equations).

[1] = Cytotoxicity test (Cell-titer Blue method) in HepG2.2.15 cells; type: cell-based; details: human, six days after treatment, highest concentration tested 100 μM, read-out: HepG2.2.15 cell viability CC50
Source text: as §1
The compound concentration, plate layout, and compound treatment process are consistent with the antiviral experiments. In six days after the cells were treated with the compound, the cell viability was measured with Cell-titer Blue.
Analyze the data and calculate relative cell viability: Use the following formula to calculate the percentage of cell viability: % Cell viability=(sample fluorescence reading-fluorescence reading of culture medium control)/(fluorescence reading of DMSO control-fluorescence reading of the culture medium control)×100.
Finally, GraphPad Prism software was used to calculate the CC50 value of the compound.

[2] = Pharmacokinetics (PK) experiment, intragastric administration in rats; type: in vivo, Male SD rats; details: for absorption after oral administration / blood exposure: oral administration; for AUC(0-inf) / Cmax / Tmax / half-life / AUC(0-t): male, SD, rat, po, intragastric administration 20 mg/kg, plasma; for AUC(0-t): read-out: AUC0-24
Description: Male SD rats weighing 215-343 grams were fasted overnight before the test. The test compound was completely dissolved in 5% of the total volume of DMSO and then diluted with 30% Captisol to 2 mg/mL, and then it was administered by gavage at dosage of 20 mg/kg. In 15 minutes, 30 minutes, 1, 2, 4, 6, 8 and 24 hours after the administration, blood was taken from the end of the tails of rats at about 0.3 ml at each time point. The blood sample was placed in a centrifuge tube containing K2-EDTA, and centrifuged (@3500 rpm, 10 minutes, 4° C.). Take the plasma and store it in an ultra-low temperature refrigerator at −80° C. 50 μL of plasma sample was mixed with 135 μl of acetonitrile (including the internal standard IS), and then vortexed for 30 s, centrifuged at 15000 rpm at 4° C. for 10 min, and 10 μl of supernatant was taken as sample and injected into LC-MS/MS for analysis.

SMILES | EC50 (hepatitis B virus (HBV)) [nM] | CC50 at 6 days [1] [µM] | also measured
C#CCNC(=O)C(=O)c1cc(C(=O)Nc2ccc(F)c(Cl)c2)c(C)o1 [Compound 2, 2-Methyl-3-amide-N-(3-chloro-4-fluorophenyl)-5-(2-propargylamino-oxalyl)-furan] | 5000 to 50000 | 61 | absorption after oral administration [2]: well absorbed; blood exposure [2]: relatively high
Cc1oc(C(=O)C(=O)NCc2nccn2C)cc1C(=O)Nc1ccc(F)c(Cl)c1 [Compound 8] | 5000 to 50000 | > 100 | absorption after oral administration [2]: well absorbed; blood exposure [2]: relatively high
Cc1oc(C(=O)C(=O)NCc2cn(C3CC3)nn2)cc1C(=O)Nc1ccc(F)c(Cl)c1 [Compound 11, 2-Methyl-3-amide-N-(3-chloro-4-fluorophenyl)-5-(2-(1-cyclopropyl-1H-[1,2,3]triazole-4-ylmethylamino)-oxalyl)-furan] |  |  | absorption after oral administration [2]: well absorbed; blood exposure [2]: relatively high
Cc1sc(C(=O)C(=O)NC(C)(C)C)c(C)c1C(=O)Nc1ccc(F)c(Cl)c1 [Compound 36, 2,4-Dimethyl-3-amide-N-(3-chloro-4-fluorophenyl)-5-(2-tert-butylamino-oxalyl)-thiophene] | ≤ 50 | > 100 | AUC(0-inf) [2]: 32600 ng·h/mL; Cmax [2]: 3730 ng/mL; Tmax [2]: 0.5 h; half-life [2]: 734 min; AUC(0-t) [2]: 25800 ng·h/mL; absorption after oral administration [2]: well absorbed; blood exposure [2]: relatively high
CC(C)(C)NC(=O)C(=O)c1cc(C(=O)Nc2ccc(F)cc2)co1 [Compound 42, 3-Amide-N-(4-fluorophenyl)-5-(2-tert-butylamino-oxalyl)-furan] | 5000 to 50000 | > 100 | absorption after oral administration [2]: well absorbed; blood exposure [2]: relatively high
Cc1c(C(=O)C(=O)NC(C)(C)C)c(C)n(C)c1C(=O)Nc1ccc2occc2c1 [Compound 52, 1,3,5-Trimethyl-2-amide-N-(benzofuran-5)-4-(2-tert-butylamino-oxalyl)-pyrrole] | ≤ 50 | > 100 | AUC(0-inf) [2]: 17100 ng·h/mL; Cmax [2]: 3670 ng/mL; Tmax [2]: 1 h; half-life [2]: 143 min; AUC(0-t) [2]: 17100 ng·h/mL
C#CCNC(=O)C(=O)c1c(C)c(C(=O)Nc2ccc3occc3c2)n(C)c1C [Compound 53, 1,3,5-Trimethyl-2-amide-N-(benzofuran-5-yl)-4-(2-propargylamino-oxalyl)-pyrrole] | ≤ 50 | > 100 | AUC(0-inf) [2]: 26400 ng·h/mL; Cmax [2]: 3930 ng/mL; Tmax [2]: 1.58 h; half-life [2]: 149 min; AUC(0-t) [2]: 26300 ng·h/mL
C#CC(C)(C)NC(=O)C(=O)c1c(C)c(C(=O)Nc2ccc3occc3c2)n(C)c1C [Compound 54, 1,3,5-Trimethyl-2-amide-N-(benzofuran-5-yl)-4-(2-(1,1-dimethylpropynamido)-oxalyl)-pyrrole] | ≤ 50 | > 100 | AUC(0-inf) [2]: 87400 ng·h/mL; Cmax [2]: 9430 ng/mL; Tmax [2]: 1.67 h; half-life [2]: 151 min; AUC(0-t) [2]: 87200 ng·h/mL
CNC(=O)C1(NC(=O)C(=O)c2c(C)c(C(=O)Nc3ccc4occc4c3)n(C)c2C)CC(F)(F)C1 [Compound 60, 1,3,5-Trimethyl-2-amide-N-(benzofuran-5-yl)-4-(2-(N-methyl-1-carboxamide-3,3-difluorocyclobutane-1-amine)-oxalyl)-pyrrole] | ≤ 50 | > 100 | 
COCC1(NC(=O)C(=O)c2c(C)c(C(=O)Nc3ccc4occc4c3)n(C)c2C)COC1 [Compound 62, 1,3,5-trimethyl-2-amide-N-(benzofuran-5-yl)-4-(2-(3-methoxymethyl-3-oxetan)(amino)-oxalyl)-pyrrole] | ≤ 50 | > 100 | 
C#CCNC(=O)C(=O)c1c(C)c(C(=O)Nc2ccc3sccc3c2)n(C)c1C [Compound 63, 1,3,5-Trimethyl-2-amide-N-(benzothiophen-5-yl)-4-(2-propargylamino-oxalyl)-pyrrole] | 50 to 500 | > 100 | 
C#CCNC(=O)C(=O)c1c(C)c(C(=O)Nc2ccc3c(ccn3C)c2)n(C)c1C [Compound 64, 1,3,5-Trimethyl-2-amide-N-(1-methyl-1H-indol-5-yl)-4-(2-propargylamino-oxalyl)-pyrrole] | 500 to 5000 | > 100 | 
C#CCNC(=O)C(=O)c1c(C)c(C(=O)Nc2ccc3ccccc3c2)n(C)c1C [Compound 66, 1,3,5-Trimethyl-2-amide-N-(naphthalen-2-yl)-4-(2-propargylamino-oxalyl)-pyrrole] | 50 to 500 | > 100 | 
C#CCNC(=O)C(=O)c1c(C)c(C(=O)Nc2ccc3nccnc3c2)n(C)c1C [Compound 67, 1,3,5-Trimethyl-2-amide-N-(quinoxalin-6-yl)-4-(2-propargylamino-oxalyl)-pyrrole] | 500 to 5000 | > 100 | 
C#CCNC(=O)C(=O)c1c(C)c(C(=O)Nc2ccc3ncccc3c2)n(C)c1C [Compound 68, 1,3,5-Trimethyl-2-amide-N-(quinolin-6-yl)-4-(2-propargylamino-oxalyl)-pyrrole] | 500 to 5000 | > 100 | 
C#CCNC(=O)C(=O)c1c(C)c(C(=O)Nc2ccc3c(c2)CCO3)n(C)c1C [Compound 69, 1,3,5-Trimethyl-2-amide-N-(2,3-dihydrobenzofuran-5-yl)-4-(2-propargylamino-oxalyl)-pyrrole] | 50 to 500 | > 100 | 
C#CCNC(=O)C(=O)c1c(C)c(C(=O)Nc2ccc3scnc3c2)n(C)c1C [Compound 70, 1,3,5-Trimethyl-2-amide-N-(benzothiazol-5-yl)-4-(2-propargylamino-oxalyl)-pyrrole] | 500 to 5000 | > 100 | 
C#CCNC(=O)C(=O)c1c(C)c(C(=O)Nc2ccc3c(c2)ncn3C)n(C)c1C [Compound 72, 1,3,5-Trimethyl-2-amide-N-(1-methyl-1H-benzimidazol-5-yl)-4-(2-propargylamino-oxalyl)-Pyrrole] | 500 to 5000 | > 100 | 
C#CCNC(=O)C(=O)c1c(C)c(C(=O)Nc2ccc3c(cnn3C)c2)n(C)c1C [Compound 73, 1,3,5-trimethyl-2-amide-N-(1-methyl-1H-indazol-5-yl)-4-(2-propargylamino-oxalyl)-pyrrole] | 500 to 5000 | > 100 | 
C#CCNC(=O)C(=O)c1c(C)c(C(=O)Nc2ccc3oncc3c2)n(C)c1C [Compound 74, 1,3,5-Trimethyl-2-amide-N-(benzisoxazol-5-yl)-4-(2-propargylamino-oxalyl)-pyrrole] | 500 to 5000 | > 100 | 
Cc1c(C(=O)C(=O)NC2(c3c[nH]nn3)CC(F)(F)C2)c(C)n(C)c1C(=O)Nc1ccc2occc2c1 [Compound 77, 1,3,5-trimethyl-2-amide-N-(benzofuran-5-yl)-4-(2-(3,3-difluoro-1-(1H-1,2,3-Triazol-4-yl)cyclobutane-1-amino)-oxalyl)-pyrrole] | ≤ 50 | > 100 | 
Cc1c(C(=O)C(=O)NC(C)(C)c2c[nH]nn2)c(C)n(C)c1C(=O)Nc1ccc2occc2c1 [Compound 78, 1,3,5-trimethyl-2-amide-N-(benzofuran-5-yl)-4-(2-(2-(1H-1,2,3-triazole-4-yl)-2-propylamino)-oxalyl)-pyrrole] | ≤ 50 | > 100 | 
C#CC(C)(C)NC(=O)C(=O)c1c(C)c(C(=O)Nc2ccc(F)c(F)c2)n(S(C)(=O)=O)c1C [Compound 81, 1-Methylsulfo-2-amide-N-(3,4-difluorophenyl)-3,5-dimethyl-4-(2-(1,1-dimethylpropynamine)-oxalyl)pyrrole] | 50 to 500 | > 100 | 
Cc1c(C(=O)C(=O)NC(C)(C)C)coc1C(=O)Nc1ccc(F)c(Cl)c1 [Compound 83, 2-Amide-N-(3-chloro-4-fluoro-phenyl)-3-methyl-4-(2-tert-butylamino-oxalyl)-furan] | > 50000 | > 100 | 
Cc1c(C(=O)C(=O)NC(C)(C)C)csc1C(=O)Nc1ccc(F)c(Cl)c1 [Compound 85, 2-Amide-N-(3-chloro-4-fluoro-phenyl)-3-methyl-4-(2-tert-butylamino-oxalyl)-thiophene] | 500 to 5000 | 96 | 
